Target: T1, hMC2 receptor (crude hMC2R membranes from CRE-bla-CHO-K1 cells stably expressing hMC2 receptor and hMRAP accessory protein) (Homo sapiens, UniProt Q01718)
T1 construct: crude membrane fractions
Assay: hMC2 membrane binding assay ([125I]ACTH (1-39) Tyr23, SPA)
Conditions: displacement of 0.2 nM [125I]ACTH (1-39) Tyr23 from hMC2R membranes, 1.5 hours at room temperature; read-out: MC2R binding potency
Procedure, shortened: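 Crude membranes from CRE-bla-CHO-K1 cells stably co-expressing hMC2R and hMRAP, premixed with WGA PVT SPA beads in pH 7.4 HEPES buffer (5 mM MgCl2, 1 mM CaCl2, 0.20% BSA, protease inhibitors). Compounds compete with [125I]ACTH(1-39) Tyr23, read by scintillation. Ki from non-linear regression.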

T1 sequence (Q01718 whole entry): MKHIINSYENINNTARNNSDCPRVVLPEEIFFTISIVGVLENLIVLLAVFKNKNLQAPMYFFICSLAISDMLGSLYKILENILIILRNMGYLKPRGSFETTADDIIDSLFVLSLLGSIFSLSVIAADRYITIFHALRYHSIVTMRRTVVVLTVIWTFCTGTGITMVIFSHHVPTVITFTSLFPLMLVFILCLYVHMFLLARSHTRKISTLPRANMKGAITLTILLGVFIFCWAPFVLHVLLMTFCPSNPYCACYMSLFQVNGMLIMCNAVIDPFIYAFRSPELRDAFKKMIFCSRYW
T1 sequence (Q8TCY5 whole entry partner): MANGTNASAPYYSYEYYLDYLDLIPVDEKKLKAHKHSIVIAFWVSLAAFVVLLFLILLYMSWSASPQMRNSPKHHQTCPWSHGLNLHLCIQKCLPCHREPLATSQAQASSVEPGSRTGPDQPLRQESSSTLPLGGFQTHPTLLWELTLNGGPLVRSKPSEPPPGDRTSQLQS

| Ki [nM] | SMILES |
| --- | --- |
| < 10 | CCOc1ccccc1-c1ncc(C2(C(=O)NCCN(C)C)CCN(c3ccc(C(F)(F)F)cc3Cl)CC2)cc1F [Compound 1-291, 1-[2-chloro-4-(trifluoromethyl)phenyl]-N-[2-(dimethylamino)ethyl]-4-[6-(2-ethoxyphenyl)-5-fluoropyridin-3-yl]piperidine-4-carboxamide] |
| < 10 | CCOc1ccccc1-c1ncc(C2(C(=O)NCCNC)CCN(c3ccc(C(F)(F)F)cc3Cl)CC2)cc1F [Compound 1-292, 1-[2-chloro-4-(trifluoromethyl)phenyl]-4-[6-(2-ethoxyphenyl)-5-fluoropyridin-3-yl]-N-[2-(methylamino)ethyl]piperidine-4-carboxamide] |
| < 10 | CNCCNC(=O)C1(c2cnc(-c3ccccc3OC)c(F)c2)CCN(c2ccc(C(F)(F)F)cc2F)CC1 [Compound 1-293, 1-[2-fluoro-4-(trifluoromethyl)phenyl]-4-[5-fluoro-6-(2-methoxyphenyl)pyridin-3-yl]-N-[2-(methylamino)ethyl]piperidine-4-carboxamide] |
| 10 to 100 | CNCCNC(=O)C1(c2cnc(-c3ccccc3OC)c(F)c2)CCN(c2ccc(C(F)(F)F)cc2Cl)CC1 [Compound 1-294, 1-[2-chloro-4-(trifluoromethyl)phenyl]-4-[5-fluoro-6-(2-methoxyphenyl)pyridin-3-yl]-N-[2-(methylamino)ethyl]piperidine-4-carboxamide] |
| < 10 | COc1ncccc1-c1ccc(C2(C(=O)N[C@@H](C)CN(C)C)CCN(c3ccc(C(F)(F)F)cc3F)CC2)cn1 [Compound 1-295, N-[(2S)-1-(dimethylamino)propan-2-yl]-1-[2-fluoro-4-(trifluoromethyl)phenyl]-4-{2′-methoxy-[2,3′-bipyridin]-5-yl}piperidine-4-carboxamide] |
| < 10 | COc1ncccc1-c1ccc(C2(C(=O)N[C@@H](C)CN(C)C)CCN(c3ccc(C(F)(F)F)cc3Cl)CC2)cn1 [Compound 1-296, 1-[2-chloro-4-(trifluoromethyl)phenyl]-N-[(2S)-1-(dimethylamino)propan-2-yl]-4-{2′-methoxy-[2,3′-bipyridin]-5-yl}piperidine-4-carboxamide] |
| < 10 | C[C@@H](CN(C)C)NC(=O)C1(c2ccc(-c3cccn3C)nc2)CCN(c2ccc(C(F)(F)F)cc2F)CC1 [Compound 1-297, N-[(2S)-1-(dimethylamino)propan-2-yl]-1-[2-fluoro-4-(trifluoromethyl)phenyl]-4-[6-(1-methyl-1H-pyrrol-2-yl)pyridin-3-yl]piperidine-4-carboxamide] |
| < 10 | CNC[C@H](C)NC(=O)C1(c2ccc(-c3cccn3C)nc2)CCN(c2ccc(C(F)(F)F)cc2F)CC1 [Compound 1-298, 1-[2-fluoro-4-(trifluoromethyl)phenyl]-4-[6-(1-methyl-1H-pyrrol-2-yl)pyridin-3-yl]-N-[(2S)-1-(methylamino)propan-2-yl]piperidine-4-carboxamide] |
| < 10 | CCOc1ncccc1-c1ncc(C2(C(=O)NCCNC)CCN(c3ccc(C(F)(F)F)cc3Cl)CC2)cc1F [Compound 1-299, 1-[2-chloro-4-(trifluoromethyl)phenyl]-4-{2′-ethoxy-3-fluoro-[2,3′-bipyridin]-5-yl}-N-[2-(methylamino)ethyl]piperidine-4-carboxamide] |
| < 10 | COc1ncccc1-c1ncc(C2(C(=O)NCCN(C)C)CCN(c3ccc(C(F)(F)F)cc3F)CC2)cc1F [Compound 1-300, N-[2-(dimethylamino)ethyl]-4-{3-fluoro-2′-methoxy-[2,3′-bipyridin]-5-yl}-1-[2-fluoro-4-(trifluoromethyl)phenyl]piperidine-4-carboxamide] |
| < 10 | CNCCNC(=O)C1(c2cnc(-c3cccnc3OC)c(F)c2)CCN(c2ccc(C(F)(F)F)cc2F)CC1 [Compound 1-301, 4-{3-fluoro-2′-methoxy-[2,3′-bipyridin]-5-yl}-1-[2-fluoro-4-(trifluoromethyl)phenyl]-N-[2-(methylamino)ethyl]piperidine-4-carboxamide] |
| < 10 | COc1ncccc1-c1ncc(C2(C(=O)NCCN(C)C)CCN(c3ccc(C(F)(F)F)cc3Cl)CC2)cc1F [Compound 1-302, 1-[2-chloro-4-(trifluoromethyl)phenyl]-N-[2-(dimethylamino)ethyl]-4-{3-fluoro-2′-methoxy-[2,3′-bipyridin]-5-yl}piperidine-4-carboxamide] |
| < 10 | CNCCNC(=O)C1(c2cnc(-c3cccnc3OC)c(F)c2)CCN(c2ccc(C(F)(F)F)cc2Cl)CC1 [Compound 1-303, 1-[2-chloro-4-(trifluoromethyl)phenyl]-4-{3-fluoro-2′-methoxy-[2,3′-bipyridin]-5-yl}-N-[2-(methylamino)ethyl]piperidine-4-carboxamide] |
| < 10 | CN(C)CCNC(=O)C1(c2cnc(-c3cccn3C)c(F)c2)CCN(c2ccc(C(F)(F)F)cc2F)CC1 [Compound 1-304, N-[2-(dimethylamino)ethyl]-1-[2-fluoro-4-(trifluoromethyl)phenyl]-4-[5-fluoro-6-(1-methyl-1H-pyrrol-2-yl)pyridin-3-yl]piperidine-4-carboxamide] |
| < 10 | CNCCNC(=O)C1(c2cnc(-c3cccn3C)c(F)c2)CCN(c2ccc(C(F)(F)F)cc2F)CC1 [Compound 1-305, 1-[2-fluoro-4-(trifluoromethyl)phenyl]-4-[5-fluoro-6-(1-methyl-1H-pyrrol-2-yl)pyridin-3-yl]-N-[2-(methylamino)ethyl]piperidine-4-carboxamide] |
| < 10 | CNC[C@H](C)NC(=O)C1(c2ccc(-c3cccnc3OC)nc2)CCN(c2ccc(C(F)(F)F)cc2F)CC1 [Compound 1-306, 1-[2-fluoro-4-(trifluoromethyl)phenyl]-4-{2′-methoxy-[2,3′-bipyridin]-5-yl}-N-[(2S)-1-(methylamino)propan-2-yl]piperidine-4-carboxamide] |
| < 10 | CNC[C@H](C)NC(=O)C1(c2ccc(-c3cccnc3OC)nc2)CCN(c2ccc(C(F)(F)F)cc2Cl)CC1 [Compound 1-307, 1-[2-chloro-4-(trifluoromethyl)phenyl]-4-{2′-methoxy-[2,3′-bipyridin]-5-yl}-N-[(2S)-1-(methylamino)propan-2-yl]piperidine-4-carboxamide] |
| < 10 | CCOc1ncccc1-c1ncc(C2(C(=O)NCCN(C)C)CCN(c3ccc(C(F)(F)F)cc3C#N)CC2)cc1F [Compound 1-308, 1-[2-cyano-4-(trifluoromethyl)phenyl]-N-[2-(dimethylamino)ethyl]-4-{2′-ethoxy-3-fluoro-[2,3′-bipyridin]-5-yl}piperidine-4-carboxamide] |
| < 10 | CN(C)CCNC(=O)C1(c2cnc(-c3cccn3C)c(F)c2)CCN(c2ccc(C(F)(F)F)cc2Cl)CC1 [Compound 1-309, 1-[2-chloro-4-(trifluoromethyl)phenyl]-N-[2-(dimethylamino)ethyl]-4-[5-fluoro-6-(1-methyl-1H-pyrrol-2-yl)pyridin-3-yl]piperidine-4-carboxamide] |
| < 10 | CNCCNC(=O)C1(c2cnc(-c3cccn3C)c(F)c2)CCN(c2ccc(C(F)(F)F)cc2Cl)CC1 [Compound 1-310, 1-[2-chloro-4-(trifluoromethyl)phenyl]-4-[5-fluoro-6-(1-methyl-1H-pyrrol-2-yl)pyridin-3-yl]-N-[2-(methylamino)ethyl]piperidine-4-carboxamide] |
| < 10 | CCOc1ncccc1-c1ncc(C2(C(=O)NCCNC)CCN(c3ccc(C(F)(F)F)cc3C#N)CC2)cc1F [Compound 1-311, 1-[2-cyano-4-(trifluoromethyl)phenyl]-4-{2′-ethoxy-3-fluoro-[2,3′-bipyridin]-5-yl}-N-[2-(methylamino)ethyl]piperidine-4-carboxamide] |
| < 10 | CCOc1ncccc1-c1ncc(C2(C(=O)N[C@@H](C)CN(C)C)CCN(c3ccc(C(F)(F)F)cc3F)CC2)cc1F [Compound 1-312, N-[(2S)-1-(dimethylamino)propan-2-yl]-4-{2′-ethoxy-3-fluoro-[2,3′-bipyridin]-5-yl}-1-[2-fluoro-4-(trifluoromethyl)phenyl]piperidine-4-carboxamide] |
| < 10 | CCOc1ncccc1-c1ccc(C2(C(=O)N[C@@H](C)CN(C)C)CCN(c3ccc(C(F)(F)F)cc3C#N)CC2)cn1 [Compound 1-313, 1-[2-cyano-4-(trifluoromethyl)phenyl]-N-[(2S)-1-(dimethylamino)propan-2-yl]-4-{2′-ethoxy-[2,3′-bipyridin]-5-yl}piperidine-4-carboxamide] |
| < 10 | CCOc1ncccc1-c1ccc(C2(C(=O)N[C@@H](C)CNC)CCN(c3ccc(C(F)(F)F)cc3C#N)CC2)cn1 [Compound 1-314, 1-[2-cyano-4-(trifluoromethyl)phenyl]-4-{2′-ethoxy-[2,3′-bipyridin]-5-yl}-N-[(2S)-1-(methylamino)propan-2-yl]piperidine-4-carboxamide] |
| < 10 | CCOc1ncccc1-c1ncc(C2(C(=O)N[C@@H](C)CNC)CCN(c3ccc(C(F)(F)F)cc3F)CC2)cc1F [Compound 1-315, 4-{2′-ethoxy-3-fluoro-[2,3′-bipyridin]-5-yl}-1-[2-fluoro-4-(trifluoromethyl)phenyl]-N-[(2S)-1-(methylamino)propan-2-yl]piperidine-4-carboxamide] |
| < 10 | CNC[C@H](C)NC(=O)C1(c2ccc(-c3cccn3C)nc2)CCN(c2ccc(C(F)(F)F)cc2C#N)CC1 [Compound 1-316, 1-[2-cyano-4-(trifluoromethyl)phenyl]-4-[6-(1-methyl-1H-pyrrol-2-yl)pyridin-3-yl]-N-[(2S)-1-(methylamino)propan-2-yl]piperidine-4-carboxamide] |
| < 10 | CCOc1ncccc1-c1ccc(C2(C(=O)N[C@@H](C)CN(C)C)CCN(c3ccc(C(F)(F)F)cc3F)CC2)cn1 [Compound 1-317, N-[(2S)-1-(dimethylamino)propan-2-yl]-4-{2′-ethoxy-[2,3′-bipyridin]-5-yl}-1-[2-fluoro-4-(trifluoromethyl)phenyl]piperidine-4-carboxamide] |

Source: patent US12492181B2, “Gem-disubstituted piperidine melanocortin subtype-2 receptor (MC2R) antagonists and uses thereof” (Crinetics Pharmaceuticals, Inc., priority 2019, dated 2025)
